In US11844811B2, “Methods and compositions for alleviating respiratory dysfunction” (MYFITSTRIP LLC, priority 2018, dated 2023):
Where two headings read alike, the source gives them in different places. Blank lines part the entries; values can stand above or below the molecule they belong to.

What was measured:
[1] = hypertensives; 5-7 mM (310-434 mg/L/day) nitrate; cited from earlier work

Structure (SMILES): O=[N+]([O-])[O-].[K+] [KNO3, potassium nitrate]
salivary nitrite (ingestion): elevated
Salivary NO2 (subject 1, 500 mg KNO3 (5 mg/Kg) at 8:00, time 1:00PM): 120 µM
Salivary NO2 (subject 1, 500 mg KNO3 (5 mg/Kg) at 8:00, time 2:00): 110 µM
Salivary NO2 (subject 1, 500 mg KNO3 (5 mg/Kg) at 8:00, time 2:45): <20 µM
Salivary NO2 (subject 1, 500 mg KNO3 (5 mg/Kg) at 8:00, time 9:00): 400 µM
Salivary NO2 (subject 1, 500 mg KNO3 (5 mg/Kg) at 8:00, time 11:00): 220 µM
Salivary NO2 (subject 1, 500 mg KNO3 (5 mg/Kg) at 8:00, time 11:40): 110 µM
Salivary NO2 (subject 2, 1,000 mg KNO3 (12 mgNO3/Kg) at 10:00, time 3:00): 220 µM
Salivary NO2 (subject 2, 1,000 mg KNO3 (12 mgNO3/Kg) at 10:00, time 4:00): 110 µM
Salivary NO2 (subject 2, 1,000 mg KNO3 (12 mgNO3/Kg) at 10:00, time 5:45): 20 µM
Salivary NO2 (subject 2, 1,000 mg KNO3 (12 mgNO3/Kg) at 10:00, time 10:30): 200 µM

nitric oxide bioavailability (salivary nitrite as surrogate marker) (human, in vivo): boosted and extended
Structure (SMILES): O=C1O[C@H]([C@@H](O)CO)C(O)=C1O [ascorbate]

Structure (SMILES): O=[N+]([O-])O [nitrate]
reduction of systolic blood pressure [1]: 4-11 mmHg
